Measurements taken from ChEMBL document CHEMBL5625252, “Synthesis of peptidomimetics as antibiotic adjuvants for combination with aztreonam to combat MDR Pseudomonas aeruginosa” (Eur J Med Chem, 2023).
Values after ≈ are worked out from the molar mass of the structure shown. Active and inactive are the calls of the source. The calls are words filed in the database; no cut-off is given here. Where a SMILES comes first, the peptide text is derived from it. The star is where a group is joined. βNA = c1ccc2cc(N*)ccc2c1

Tests used:
[1] = tested on: Pseudomonas aeruginosa; test: Synergistic antibacterial activity against Pseudomonas aeruginosa 12-1 in CAMH broth medium supplemented with 20.99 to 21.09 mM Mg2+ in presence of aztreonam by checkerboard assay; format: functional
[2] = tested on: Pseudomonas aeruginosa; test: Synergistic antibacterial activity against Pseudomonas aeruginosa 23-Y372 assessed as aztreonam MIC at 128 ug/ml incubated for 18 hrs by checkerboard method; format: functional; settings: dose 128 µg/ml
[3] = tested on: Pseudomonas aeruginosa; test: Synergistic antibacterial activity against Pseudomonas aeruginosa 13-17 assessed as aztreonam MIC at 128 ug/ml incubated for 18 hrs by checkerboard method; format: functional; settings: dose 128 µg/ml
[4] = tested on: Pseudomonas aeruginosa; test: Synergistic antibacterial activity against Pseudomonas aeruginosa 23-Y417 assessed as fractional inhibitory concentration index at 128 ug/ml incubated for 18 hrs in presence of aztreonam by checkerboard method; format: functional; settings: dose 128 µg/ml
[5] = tested on: Pseudomonas aeruginosa; test: Antibacterial activity against Pseudomonas aeruginosa 23-Y122 assessed as inhibition of bacterial growth incubated for 18 hrs by agar dilution method; format: functional
[6] = tested on: Pseudomonas aeruginosa; test: Synergistic antibacterial activity against Pseudomonas aeruginosa 23-Y511 assessed as aztreonam MIC at 128 ug/ml incubated for 18 hrs by checkerboard method; format: functional; settings: dose 128 µg/ml
[7] = tested on: Pseudomonas aeruginosa; test: Antibacterial activity against Pseudomonas aeruginosa PAO1 assessed as inhibition of bacterial growth incubated for 18 hrs by agar dilution method; format: functional
[8] = tested on: Pseudomonas aeruginosa; test: Synergistic antibacterial activity against Pseudomonas aeruginosa 19-55 assessed as aztreonam MIC at 128 ug/ml incubated for 18 hrs by checkerboard method; format: functional; settings: dose 128 µg/ml
[9] = tested on: Pseudomonas aeruginosa; test: Synergistic antibacterial activity against Pseudomonas aeruginosa PAO1 assessed as aztreonam MIC in CAMH broth medium supplemented with 20.99 to 21.09 mM Mg2+ by checkerboard assay; format: functional
[10] = tested on: Pseudomonas aeruginosa; test: Antibacterial activity against Pseudomonas aeruginosa 19-55 assessed as inhibition of bacterial growth incubated for 18 hrs by agar dilution method; format: functional
[11] = tested on: Pseudomonas aeruginosa; test: Synergistic antibacterial activity against Pseudomonas aeruginosa 23-Y364 assessed as fractional inhibitory concentration index at 128 ug/ml incubated for 18 hrs in presence of aztreonam by checkerboard method; format: functional; settings: dose 128 µg/ml
[12] = tested on: Pseudomonas aeruginosa; test: Antibacterial activity against Pseudomonas aeruginosa 23-Y417 assessed as inhibition of bacterial growth incubated for 18 hrs by agar dilution method; format: functional
[13] = tested on: Pseudomonas aeruginosa; test: Synergistic antibacterial activity against Pseudomonas aeruginosa 16-11 in CAMH broth medium supplemented with 0.41 to 0.51 mM Mg2+ in presence of aztreonam by checkerboard assay; format: functional
[14] = tested on: Pseudomonas aeruginosa; test: Antibacterial activity against Pseudomonas aeruginosa 13-35 in CAMH broth medium supplemented with 0.41 to 0.51 mM Mg2+ by checkerboard assay; format: functional
[15] = tested on: Pseudomonas aeruginosa; test: Synergistic antibacterial activity against Pseudomonas aeruginosa 23-Y539 assessed as fractional inhibitory concentration index at 128 ug/ml incubated for 18 hrs in presence of aztreonam by checkerboard method; format: functional; settings: dose 128 µg/ml
[16] = tested on: Pseudomonas aeruginosa; test: Antibacterial activity against Pseudomonas aeruginosa 21-2 assessed as inhibition of bacterial growth incubated for 18 hrs by agar dilution method; format: functional
[17] = tested on: Pseudomonas aeruginosa; test: Antibacterial activity against Pseudomonas aeruginosa 16-11 in CAMH broth medium supplemented with 20.99 to 21.09 mM Mg2+ by checkerboard assay; format: functional
[18] = tested on: Pseudomonas aeruginosa; test: Synergistic antibacterial activity against Pseudomonas aeruginosa 13-3 assessed as aztreonam MIC at 128 ug/ml incubated for 18 hrs by checkerboard method; format: functional; settings: dose 128 µg/ml
[19] = tested on: Pseudomonas aeruginosa; test: Synergistic antibacterial activity against Pseudomonas aeruginosa 16-11 assessed as fractional inhibitory concentration index at 128 ug/ml incubated for 18 hrs in presence of aztreonam by checkerboard method; format: functional; settings: dose 128 µg/ml
[20] = tested on: Pseudomonas aeruginosa; test: Antibacterial activity against Pseudomonas aeruginosa 12-1 in CAMH broth medium supplemented with 0.41 to 0.51 mM Mg2+ by checkerboard assay; format: functional
[21] = tested on: Pseudomonas aeruginosa; test: Synergistic antibacterial activity against Pseudomonas aeruginosa 13-35 assessed as aztreonam MIC at 128 ug/ml incubated for 18 hrs by checkerboard method; format: functional; settings: dose 128 µg/ml
[22] = tested on: Pseudomonas aeruginosa; test: Antibacterial activity against Pseudomonas aeruginosa 16-2 assessed as inhibition of bacterial growth incubated for 18 hrs by agar dilution method; format: functional
[23] = tested on: Pseudomonas aeruginosa; test: Synergistic antibacterial activity against Pseudomonas aeruginosa 19-55 assessed as fractional inhibitory concentration index at 128 ug/ml incubated for 18 hrs in presence of aztreonam by checkerboard method; format: functional; settings: dose 128 µg/ml
[24] = tested on: Pseudomonas aeruginosa; test: Synergistic antibacterial activity against Pseudomonas aeruginosa 21-8 assessed as fractional inhibitory concentration index at 128 ug/ml incubated for 18 hrs in presence of aztreonam by checkerboard method; format: functional; settings: dose 128 µg/ml
[25] = tested on: Pseudomonas aeruginosa; test: Synergistic antibacterial activity against Pseudomonas aeruginosa PAO1 assessed as aztreonam MIC at 128 ug/ml incubated for 18 hrs by checkerboard method; format: functional; settings: dose 128 µg/ml
[26] = tested on: Pseudomonas aeruginosa; test: Synergistic antibacterial activity against Pseudomonas aeruginosa 13-35 assessed as fractional inhibitory concentration index at 128 ug/ml incubated for 18 hrs in presence of aztreonam by checkerboard method; format: functional; settings: dose 128 µg/ml
[27] = tested on: Pseudomonas aeruginosa; test: Antibacterial activity against Pseudomonas aeruginosa PAO1 assessed as fractional inhibitory concentration index upto 128 ug/ml incubated for 18 hrs in presence of aztreonam by checkerboard method; format: functional; settings: dose <= 128 µg/ml
[28] = tested on: Pseudomonas aeruginosa; test: Synergistic antibacterial activity against Pseudomonas aeruginosa 16-11 assessed as aztreonam MIC in CAMH broth medium supplemented with 0.41 to 0.51 mM Mg2+ by checkerboard assay; format: functional
[29] = tested on: Pseudomonas aeruginosa; test: Synergistic antibacterial activity against Pseudomonas aeruginosa 13-35 assessed as aztreonam MIC in CAMH broth medium supplemented with 20.99 to 21.09 mM Mg2+ by checkerboard assay; format: functional
[30] = tested on: Pseudomonas aeruginosa; test: Antibacterial activity against Pseudomonas aeruginosa PAO1 infected in Galleria mellonella assessed as increase in larvae survival at 100 mg/kg measured after 96 hrs post inoculation in presence of 25 mg/kg aztreonam; format: functional
[31] = tested on: Pseudomonas aeruginosa; test: Antibacterial activity against Pseudomonas aeruginosa 21-7 assessed as inhibition of bacterial growth incubated for 18 hrs by agar dilution method; format: functional
[32] = tested on: Pseudomonas aeruginosa; test: Synergistic antibacterial activity against Pseudomonas aeruginosa 21-2 assessed as fractional inhibitory concentration index at 128 ug/ml incubated for 18 hrs in presence of aztreonam by checkerboard method; format: functional; settings: dose 128 µg/ml
[33] = tested on: Pseudomonas aeruginosa; test: Synergistic antibacterial activity against Pseudomonas aeruginosa 13-17 assessed as fractional inhibitory concentration index at 128 ug/ml incubated for 18 hrs in presence of aztreonam by checkerboard method; format: functional; settings: dose 128 µg/ml
[34] = tested on: Pseudomonas aeruginosa; test: Synergistic antibacterial activity against Pseudomonas aeruginosa PAO1 assessed as aztreonam MIC in CAMH broth medium supplemented with 0.41 to 0.51 mM Mg2+ by checkerboard assay; format: functional
[35] = tested on: Pseudomonas aeruginosa; test: Antibacterial activity against Pseudomonas aeruginosa 23-Y372 assessed as inhibition of bacterial growth incubated for 18 hrs by agar dilution method; format: functional
[36] = Cytotoxicity against human LX2 cells incubated for 24 hrs by MTT assay; format: toxicity, cell-based; settings: LX-2 cells
[37] = tested on: Pseudomonas aeruginosa; test: Synergistic antibacterial activity against Pseudomonas aeruginosa 19-46 assessed as aztreonam MIC at 128 ug/ml incubated for 18 hrs by checkerboard method; format: functional; settings: dose 128 µg/ml
[38] = tested on: Pseudomonas aeruginosa; test: Antibacterial activity against Pseudomonas aeruginosa PAO1 infected in Galleria mellonella assessed as increase in larvae survival at 100 mg/kg after 12 hrs of innoculation; format: functional, organism-based
[39] = tested on: Pseudomonas aeruginosa; test: Antibacterial activity against Pseudomonas aeruginosa PAO1 in CAMH broth medium supplemented with 20.99 to 21.09 mM Mg2+ by checkerboard assay; format: functional

For `NCCC[C@H](NC(=O)C[C@@H](N)Cc1ccccc1)C(=O)Nc1ccc2ccccc2c1`, which MIC [1] is on record?
Its MIC is 128 µg/mL.

What about the MIC [2] of the same compound?
The MIC was 4 µg/mL.

What about the MIC [3] of the same compound?
Its MIC is 4 µg/mL.

What about the “fractional inhibitory concentration index (FICI)” value [4] of the same compound?
Its value is less than 0.5.

And the MIC [5]?
Its MIC is 512 µg/mL (≈ 1220 µM).

And the MIC [6]?
The MIC was 16 µg/mL.

What about the MIC [7] of the same compound?
The MIC was 512 µg/mL (≈ 1220 µM).

And the MIC [8]?
Its MIC is 8 µg/mL.

What about the MIC [9] of the same compound?
Its MIC is 8 µg/mL.

What about the MIC [10] of the same compound?
Its MIC is 512 µg/mL (≈ 1220 µM).

What about the “fractional inhibitory concentration index (FICI)” value [11] of the same compound?
Its value is less than 0.281.

What about the MIC [12] of the same compound?
Its MIC is greater than 512 µg/mL.

And the MIC [13]?
Its MIC is 128 µg/mL.

And the MIC [14]?
Its MIC is 512 µg/mL.

And the “fractional inhibitory concentration index (FICI)” value [15]?
Its value is 0.313.

What about the MIC [16] of the same compound?
The MIC was greater than 512 µg/mL.

What about the MIC [17] of the same compound?
The MIC was 512 µg/mL.

And the MIC [18]?
The MIC was 8 µg/mL.

And the “fractional inhibitory concentration index (FICI)” value [19]?
The value was 0.5.

What about the MIC [20] of the same compound?
The MIC was 512 µg/mL.

And the MIC [21]?
Its MIC is 4 µg/mL.

What about the MIC [22] of the same compound?
Its MIC is 513 µg/mL (≈ 1230 µM).

What about the “fractional inhibitory concentration index (FICI)” value [23] of the same compound?
Its value is 0.313.

What about the “fractional inhibitory concentration index (FICI)” value [24] of the same compound?
The value was less than 0.5.

What about the MIC [25] of the same compound?
The MIC was 2 µg/mL.

And the “fractional inhibitory concentration index (FICI)” value [26]?
Its value is 0.375.

And the “fractional inhibitory concentration index (FICI)” value [27]?
The value was less than 0.375.

And the MIC [28]?
The MIC was 2 µg/mL.

And the MIC [29]?
The MIC was 32 µg/mL.

What about the Activity [30] of the same compound?
The Activity was 40%.

What about the MIC [31] of the same compound?
The MIC was 512 µg/mL (≈ 1220 µM).

What about the “fractional inhibitory concentration index (FICI)” value [32] of the same compound?
Its value is less than 0.5.

What about the “fractional inhibitory concentration index (FICI)” value [33] of the same compound?
Its value is 0.313.

What about the MIC [34] of the same compound?
Its MIC is 2 µg/mL.

And the MIC [35]?
Its MIC is 512 µg/mL (≈ 1220 µM).

What about the CC50 at 24 h [36] of the same compound?
Its CC50 at 24 h is greater than 100 µM.

And the MIC [37]?
Its MIC is 16 µg/mL.

And the Activity [38]?
The Activity was “inactive”.

What about the MIC [39] of the same compound?
The MIC was 512 µg/mL.

Which MIC [1] does the source give for `N=C(N)NCCC[C@H](NC(=O)[C@@H](N)Cc1ccccc1)C(=O)Nc1ccc2ccccc2c1` [PABETAN] (H-Phe-Arg-βNA) here?
The MIC was 128 µg/mL.

What about the “fractional inhibitory concentration index (FICI)” value [4] of the same compound?
The value was 0.5.

What about the “fractional inhibitory concentration index (FICI)” value [11] of the same compound?
The value was 0.281.

And the MIC ([12]; read-out: MIC)?
The MIC was 512 µg/mL (≈ 1150 µM).

What about the MIC [13] of the same compound?
The MIC was 128 µg/mL.

What about the MIC [14] of the same compound?
The MIC was 512 µg/mL.

What about the “fractional inhibitory concentration index (FICI)” value [15] of the same compound?
Its value is 0.313.

And the MIC [16]?
Its MIC is 512 µg/mL (≈ 1150 µM).

What about the MIC [17] of the same compound?
The MIC was 512 µg/mL.

And the “fractional inhibitory concentration index (FICI)” value [19]?
The value was 0.5.

What about the MIC [20] of the same compound?
Its MIC is 512 µg/mL.

What about the “fractional inhibitory concentration index (FICI)” value [23] of the same compound?
Its value is 0.313.

What about the “fractional inhibitory concentration index (FICI)” value [24] of the same compound?
Its value is 0.5.

And the “fractional inhibitory concentration index (FICI)” value [26]?
Its value is 0.375.

What about the “fractional inhibitory concentration index (FICI)” value [27] of the same compound?
The value was less than 0.375.

And the “fractional inhibitory concentration index (FICI)” value [32]?
The value was 0.5.

And the “fractional inhibitory concentration index (FICI)” value [33]?
The value was 0.313.

And the CC50 at 24 h [36]?
The CC50 at 24 h was greater than 100 µM.

And the MIC [39]?
The MIC was 512 µg/mL.
